Consider 13 compounds from ChEMBL document CHEMBL1155335, “Studies towards topical selective beta2-adrenoceptor agonists with a long duration of action” (Bioorg Med Chem Lett, 2009).

The species entered for one data set is Homo sapiens. Nature of the data set: Selectivity ratio, EC50 for human beta-1 adrenoceptor to EC50 for human beta2 adrenoceptor.
Data set [1] has as its target Beta-1 adrenergic receptor (Homo sapiens, UniProt P08588).
Description: Agonist activity at human beta-1 adrenoceptor expressed in CHOK1 cell assessed as increase of intracellular cAMP level
The target in data set [2] is Beta-2 adrenergic receptor (Homo sapiens, UniProt P07550).
Description: Agonist activity at human beta2 adrenoceptor expressed in CHOK1 cell assessed as increase of intracellular cAMP level
Data set [3] deals with Cavia porcellus. Put plainly: Toxicity in guinea pig assessed as increase in heart rate at 3 ug/kg, intratracheally after 90 mins. It counts as organism-based. Conditions: in vivo, inhaled_or_intranasal, 0.003 mg/kg, 1.5 h.
Data set [4] relates to Cavia porcellus. Nature of the data set: Bronchoprotective activity in intratracheally dosed guinea pig assessed as inhibition of acetylcholine-induced increase in pulmonary resistance after 5 hrs. It counts as functional, organism-based.
The subject of data set [5] is Cavia porcellus. Nature of the data set: Toxicity in intratracheally dosed guinea pig assessed as increase in heart rate after 10 to 20 mins. It counts as organism-based. Conditions: in vivo, inhaled_or_intranasal.
For data set [6], the system named is Cavia porcellus. Put plainly: Bronchoprotective activity in guinea pig assessed as inhibition of acetylcholine-induced increase in pulmonary resistance at 10 ug/kg, intratracheally after 5 hrs. It counts as functional. Also noted: scale not given: the % may be the effect or the level left.
Data set [7] relates to Cavia porcellus. Nature of the data set: Bronchoprotective activity in guinea pig assessed as inhibition of acetylcholine-induced increase in pulmonary resistance at 3 ug/kg, intratracheally after 5 hrs. It counts as functional, organism-based.
The test system of data set [8] is Cavia porcellus. Put plainly: Toxicity in guinea pig assessed as increase in heart rate at 10 ug/kg, intratracheally after 90 mins. The class given is organism-based. Conditions: in vivo, inhaled_or_intranasal, 0.01 mg/kg, 1.5 h.

The source made the active and inactive calls. No cut-off for these calls is given here.

Chain of Beta-1 adrenergic receptor (P08588 whole entry): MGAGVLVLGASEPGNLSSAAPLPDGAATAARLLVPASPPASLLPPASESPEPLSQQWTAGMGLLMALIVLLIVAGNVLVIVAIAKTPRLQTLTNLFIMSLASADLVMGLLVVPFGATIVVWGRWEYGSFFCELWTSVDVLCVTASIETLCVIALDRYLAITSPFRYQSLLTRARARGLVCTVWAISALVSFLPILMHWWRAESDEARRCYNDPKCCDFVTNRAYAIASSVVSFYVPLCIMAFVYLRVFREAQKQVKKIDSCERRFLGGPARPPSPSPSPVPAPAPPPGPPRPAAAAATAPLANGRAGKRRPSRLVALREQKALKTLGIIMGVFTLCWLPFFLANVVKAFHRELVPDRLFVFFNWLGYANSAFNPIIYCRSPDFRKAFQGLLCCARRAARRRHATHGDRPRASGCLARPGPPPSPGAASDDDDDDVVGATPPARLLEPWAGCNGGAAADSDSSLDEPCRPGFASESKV
Chain of Beta-2 adrenergic receptor (P07550 whole entry): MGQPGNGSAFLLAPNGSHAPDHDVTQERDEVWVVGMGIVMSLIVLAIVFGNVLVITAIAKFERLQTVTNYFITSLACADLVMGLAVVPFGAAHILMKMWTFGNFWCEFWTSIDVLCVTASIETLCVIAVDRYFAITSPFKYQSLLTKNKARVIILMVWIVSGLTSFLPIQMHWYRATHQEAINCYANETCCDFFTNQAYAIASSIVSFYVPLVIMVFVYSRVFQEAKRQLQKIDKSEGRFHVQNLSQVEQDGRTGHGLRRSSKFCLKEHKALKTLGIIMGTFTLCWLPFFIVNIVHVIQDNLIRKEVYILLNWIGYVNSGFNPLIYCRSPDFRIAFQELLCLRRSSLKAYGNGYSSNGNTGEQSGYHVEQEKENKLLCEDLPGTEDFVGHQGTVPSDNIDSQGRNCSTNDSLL

Consider `CC(C)(Cc1ccc(NC(=O)CCCNC(=O)C[N+](C)(C)C)cc1)NCC(O)c1ccc(O)c2c1OCC(=O)N2` (centres undefined), for which, in the data set listed under Homo sapiens, the Ratio EC50 was 3.5. The EC50 in data set [1] came to 3.5 nM; in data set [2] it was 1 nM.
As to `CN1CCN(CC(=O)NCCCC(=O)Nc2ccc(CC(C)(C)NCC(O)c3ccc(O)c4c3OCC(=O)N4)cc2)CC1` (centres undefined), in the data set filed under Homo sapiens, the Ratio EC50 worked out at 4.8. Besides, the EC50 was found to be 5.7 nM in data set [1] and 1.2 nM in data set [2].
For the compound `CC(C)(Cc1ccc(NC(=O)CCCNCCCS(=O)(=O)O)cc1)NCC(O)c1ccc(O)c2c1OCC(=O)N2` (centres undefined), the values for the Activity entry in the data set on Cavia porcellus [3], with Cavia porcellus [4] and with Cavia porcellus [5] were “Active”, “Dose-dependent effect” and “Toxic”, respectively. In the data set filed under Homo sapiens, the Ratio EC50 turned out to be 5.5. Besides, the EC50 in data set [1] stood at 9.9 nM; in data set [2], 1.8 nM.
On to `CC(C)(Cc1ccc(NC(=O)CCCN)cc1)NCC(O)c1ccc(O)c2c1OCC(=O)N2` (centres undefined), for which the Ratio EC50 in the data set listed under Homo sapiens was determined as 3.1. Also, the EC50 turned out to be 3.4 nM in data set [1] and 1.1 nM in data set [2].
On to `CC(C)(Cc1ccc(NC(=O)CCCNC(=O)C(N)CCCN)cc1)NCC(O)c1ccc(O)c2c1OCC(=O)N2` (centres undefined), for which the Activity with Cavia porcellus [6] was 100%; with Cavia porcellus [8] it was above 10%; in the data set on Cavia porcellus [4], “Dose-dependent effect”; in the data set with Cavia porcellus [5] it was “Toxic”. In addition, the outcome in the data set with Cavia porcellus [7] was Active. In the data set listed under Homo sapiens, the Ratio EC50 came to 4.4. The EC50 in data set [1] is 24 nM; in [2], 5.4 nM.
For `CC(C)(Cc1ccc(NC(=O)CCCNC(=N)N)cc1)NCC(O)c1cc(O)cc2c1OCC(=O)N2` (centres undefined), the Ratio EC50 in the data set filed under Homo sapiens came to 4.4.
In the case of `CC(C)(Cc1ccc(NC(=O)CCCNC(=O)CN)cc1)NCC(O)c1ccc(O)c2c1OCC(=O)N2` (centres undefined), the Activity in the data set on Cavia porcellus [6] is 100%; in the data set with Cavia porcellus [8] it was above 10%; in the data set on Cavia porcellus [4] it was “Dose-dependent effect”; in the data set with Cavia porcellus [5] it was “Toxic”. For the same compound, the result with Cavia porcellus [7] was Active. Further, the Ratio EC50 in the data set listed under Homo sapiens amounted to 3.8. Further, the values for the EC50 in [1] and in data set [2] were 4.5 nM and 1.2 nM, respectively.
Regarding `CC(C)(Cc1ccc(NC(=O)CCCNC(=O)C[N+](C)(C)C)cc1)NCC(O)c1cc(O)cc2c1OCC(=O)N2` (centres undefined), the Ratio EC50 in the data set filed under Homo sapiens was 2.4. Besides, the EC50 turned out to be 28 nM in [1] and 11.6 nM in data set [2].
As for `CC(C)(Cc1ccc(NC(=O)CCCNC(=O)CCN)cc1)NCC(O)c1ccc(O)c2c1OCC(=O)N2` (centres undefined), the Ratio EC50 in the data set listed under Homo sapiens is 5.1. In addition, the 50% effective concentration (EC50) in data set [1] was determined as 4.6 nM; in data set [2] it was 0.9 nM.
The corresponding values for `CC(C)(Cc1ccc(NC(=O)CCCN)cc1)NCC(O)c1cc(O)cc2c1OCC(=O)N2` (centres undefined) are 1.2, 11 nM and 9 nM.
On the same counts, the results for `CN(C)CC(=O)NCCCC(=O)Nc1ccc(CC(C)(C)NCC(O)c2ccc(O)c3c2OCC(=O)N3)cc1` (centres undefined) are 10.6, 5.3 nM and 0.5 nM.
`CC(C)(Cc1ccc(NC(=O)CCCNC(=N)N)cc1)NCC(O)c1ccc(O)c2c1OCC(=O)N2` (centres undefined): the Activity is 100% in the data set with Cavia porcellus [6], above 10% with Cavia porcellus [8], “Dose-dependent effect” with Cavia porcellus [4] and “Toxic” in the data set on Cavia porcellus [5]. The result with Cavia porcellus [7] was Active. In the data set listed under Homo sapiens, the Ratio EC50 is 1.8. The concentration giving a half-maximal response (EC50) in data set [1] stood at 1.8 nM; in data set [2], 1 nM.
As to `CC(C)(Cc1ccc(NC(=O)CCCN=C(N)N)cc1)NCC(O)c1cc(O)cc2c1OCC(=O)N2` (centres undefined), the values for the EC50 in data set [1] and in data set [2] were 18 nM and 4.1 nM, respectively.
